We go through 12 compounds from patent publication US10105357B2, “Indication of antibiotic drugs for preparation of cancer inhibition pharmaceutical composition” (LAUNX BIOMEDICAL CO., LTD., priority 2014, dated 2018).

Holding throughout (format): cell-based, human
The test system of one series is cancer cell lines. Kind of series: Cell viability analysis (WST-1) on cancer cell lines. The following applies: drug 10 μM, 72 hours; for inhibition effect on different cancer cell lines: WST-1, Table 3. (Tetrazolium dyes change colour on reduction, which living cells bring about.)
For series [1], the system named is HepG2 (Hepatocellular Carcinoma). Kind of series: Cell viability analysis, hepatic cancer HepG2. The following applies: for viability at 10 µM: Homo sapiens, HepG2, 72 h, read-out: cell viability (survival rate), HepG2, drug 10 μM, 72 hours, WST-1, OD450 nm.
Series [2] deals with HI650 (Lung Adenocarcinoma). The series is described as follows: Cell viability analysis, lung cancer HI650. The conditions noted are these: for viability at 10 µM: Homo sapiens, NCI-H1650, 72 h, read-out: cell viability (survival rate), H1650, drug 10 μM, 72 hours, WST-1, OD450 nm; for cell viability (survival rate), H1650: drug 10 μM, 72 hours, WST-1, OD450 nm.
Series [3] deals with MKN-45 (Gastric Adenocarcinoma). The series is described as follows: Cell viability analysis, gastric cancer MKN-45. The conditions noted are these: for viability at 10 µM: Homo sapiens, MKN-45, 72 h, read-out: cell viability (survival rate), MKN-45, drug 10 μM, 72 hours, WST-1, OD450 nm.
For series [4], the system named is HL-60 (Acute Promyelocytic Leukemia). Kind of series: Cell viability analysis, leukemia HL-60. The conditions noted are these: for viability at 10 µM: Homo sapiens, HL-60, 72 h, read-out: cell viability (survival rate), HL-60, drug 10 μM, 72 hours, WST-1, OD450 nm; for cell viability (survival rate), HL-60: drug 10 μM, 72 hours, WST-1, OD450 nm.
For series [5], the system named is A549 (Lung Adenocarcinoma). The series is described as follows: Cell viability analysis, lung cancer A549. The following applies: for viability at 10 µM: Homo sapiens, A549, 72 h, read-out: cell viability (survival rate), A549, drug 10 μM, 72 hours, WST-1, OD450 nm.
In series [6] the test system is AGS (Gastric Adenocarcinoma). The series is described as follows: Cell viability analysis, gastric cancer AGS. The conditions noted are these: for viability at 10 µM: Homo sapiens, 72 h, read-out: cell viability (survival rate), AGS, drug 10 μM, 72 hours, WST-1, OD450 nm; for cell viability (survival rate), AGS: drug 10 μM, 72 hours, WST-1, OD450 nm.
Series [7] relates to LoVo (Colorectal Adenocarcinoma). The series is described as follows: Cell viability analysis, colon cancer LoVo. The conditions noted are these: for viability at 10 µM: Homo sapiens, LoVo, 72 h, read-out: cell viability (survival rate), LoVo, drug 10 μM, 72 hours, WST-1, OD450 nm; for cell viability (survival rate), LoVo: drug 10 μM, 72 hours, WST-1, OD450 nm.
Series [8] concerns HeLa (Cervix Adenocarcinoma). Kind of series: Cell viability analysis, cervical cancer HeLa. The following applies: for viability at 10 µM: Homo sapiens, HeLa, 72 h, read-out: cell viability (survival rate), HeLa, drug 10 μM, 72 hours, WST-1, OD450 nm; for cell viability (survival rate), HeLa: drug 10 μM, 72 hours, WST-1, OD450 nm.
Series [9] concerns TSGH-8301 (Urinary Bladder Carcinoma). The series is described as follows: Cell viability analysis, bladder cancer TSGH-8301. The following applies: for viability at 10 µM: Homo sapiens, 72 h, read-out: cell viability (survival rate), TSGH, drug 10 μM, 72 hours, WST-1, OD450 nm.
For series [10], the system named is MCF7 (Mammary Gland, Adenocarcinoma). Kind of series: Cell viability analysis, breast cancer MCF7. The conditions noted are these: for viability at 10 µM: Homo sapiens, MCF7, 72 h, read-out: cell viability (survival rate), MCF7, drug 10 μM, 72 hours, WST-1, OD450 nm.
Series [11] has as its system A375 (Amelanotic Melanoma). The series is described as follows: Cell viability analysis, skin cancer A375. The following applies: for viability at 10 µM: Homo sapiens, A-375, 72 h, read-out: cell viability (survival rate), A375, drug 10 μM, 72 hours, WST-1, OD450 nm; for cell viability (survival rate), A375: drug 10 μM, 72 hours, WST-1, OD450 nm.
Series [12] deals with PC3 (p53−) (Prostate Adenocarcinoma). The series is described as follows: Cell viability analysis, prostate cancer PC3. The following applies: human, 72 h, 10 µM.
Where [13] appears, read: drug 10 μM, 72 hours, WST-1, OD450 nm.

For the compound `CN(C)CCC(c1ccc(Br)cc1)c1ccccn1` (centres unmarked) [Brompheniramine], the “inhibition effect on different cancer cell lines” value with cancer cell lines was “significant inhibition effect”. For the same compound, the viability (usually a read-out of living cells in per cent, often relative to untreated cells) at 10 µM in series [1] turned out to be 95.7%; in series [2] it was 83%; in [3] it was 85.8%; in series [4], 122%; in series [5], 109%; in series [6], 121%. Further, the viability at 10 µM in series [7] stood at 98.9%; in series [8], 111%; in series [9] it was 97.9%; in [10] it was 75.8%.
As for `O=C(O)CCCC[C@@H]1SC[C@@H]2NC(=O)N[C@@H]21` [Biotin (Vitamin B7), Biotin], the “inhibition effect on different cancer cell lines” value with cancer cell lines is reported as “significant inhibition effect”. Moreover, the viability at 10 µM in series [2] was 94.2%; in [3], 85.1%; in series [4] it was 85.2%; in series [5], 86.4%; in series [6] it was 104%; in series [7] it was 99.2%. The viability at 10 µM in series [8] is 90.7%; in series [9], 93.5%; in [11], 71.3%; in series [10], 89.1%.
As to `CC(=O)OCC1=C(C(=O)O)N2C(=O)[C@@H](NC(=O)CSc3ccncc3)[C@H]2SC1` [Cephapirin Sodium], in the series with cancer cell lines, the “inhibition effect on different cancer cell lines” value is “significant inhibition effect”. Also, the viability at 10 µM turned out to be 79.8% in series [1]; 76.2% in series [2]; 69.1% in [3]; 84.3% in [4]; 57.7% in [5]; 79.8% in series [6]. Besides, the viability at 10 µM was determined as 92.8% in series [7]; 69.2% in series [8]; 78.2% in [9]; 50.2% in series [11]; 49.5% in series [10].
`[H]/N=C(/N)NS(=O)(=O)c1ccc(N)cc1` [Sulfaguanidine]: the “inhibition effect on different cancer cell lines” value in the series on cancer cell lines was “significant inhibition effect”. Further, the viability at 10 µM in series [1] is 96.1%; in [2], 95.6%; in series [3] it was 83.5%; in series [4], 99.1%; in [5] it was 82.2%; in series [6], 84%. Also, the viability at 10 µM amounted to 78.9% in [7]; 113% in series [8]; 107% in series [9]; 145% in [11]; 92.6% in series [10].
For `C[C@@H](O)[C@H]1C(=O)N2C(C(=O)O)=C(S[C@@H]3CN[C@H](CNS(N)(=O)=O)C3)[C@H](C)[C@H]12` [Doripenem Hydrate], the “inhibition effect on different cancer cell lines” value in the series on cancer cell lines is listed as “significant inhibition effect”. The viability at 10 µM in [1] came out at 106%; in series [2] it was 78.5%; in series [3], 111%; in [4], 91.2%; in series [5], 70.9%; in [6] it was 66.5%. Further, the viability at 10 µM came to 95.2% in series [7], 122% in series [8], 79.9% in series [9] and 99.8% in series [10].
On to Colistin Sulfate, for which, in the series with cancer cell lines, the “inhibition effect on different cancer cell lines” value was “significant inhibition effect”. Moreover, in series [1] (setting [13]), the “cell viability (survival rate), HepG2” value is on record as 77.7. In series [2], the “cell viability (survival rate), H1650” value stood at 62.2. In series [4], the “cell viability (survival rate), HL-60” value turned out to be 108.9. In addition, the “cell viability (survival rate), A549” value in series [5] (setting [13]) is reported as 97.6. For the same compound, the “cell viability (survival rate), AGS” value in series [6] stood at 26.1. For the same compound, in series [7], the “cell viability (survival rate), LoVo” value is given as 92.0. The “cell viability (survival rate), HeLa” value in series [8] is 84.3. Moreover, in [9] (setting [13]), the “cell viability (survival rate), TSGH” value stood at 36.2. The “cell viability (survival rate), A375” value in series [11] was determined as 36.1.
Turning to `CCN1CCN(C(=O)N[C@@H](C(=O)N[C@@H]2C(=O)N3[C@@H]2SC(C)(C)[C@@H]3C(=O)O)c2ccccc2)C(=O)C1=O` [Piperacillin Sodium], the “inhibition effect on different cancer cell lines” value in the series with cancer cell lines is on record as “significant inhibition effect”. Also, the viability at 10 µM in series [1] stood at 96.3%; in series [2], 71.6%; in series [3], 87.1%; in series [4], 108%; in series [5], 37.1%; in series [6], 98.3%. For the same compound, the viability at 10 µM was 97.4% in [7], 87.1% in [9], 67.9% in series [11] and 52.3% in [10].
Regarding `Clc1ccc(C(Cn2ccnc2)OCc2csc3c(Cl)cccc23)c(Cl)c1` (centres unmarked) [Sertaconazole nitrate], the “inhibition effect on different cancer cell lines” value in the series with cancer cell lines is on record as “significant inhibition effect”. For the same compound, the viability at 10 µM amounted to 77.4% in series [1]; 96.3% in series [2]; 69.5% in series [3]; 73.4% in [4]; 75.4% in series [5]; 97.1% in series [6]. In addition, the viability at 10 µM is 94.9% in series [7]; 58.9% in series [8]; 89.4% in [9]; 52% in series [11]; 76.4% in series [10].
`Nc1ccn([C@H]2CC[C@@H](CO)O2)c(=O)n1` [Zalcitabine]: the “inhibition effect on different cancer cell lines” value with cancer cell lines is on record as “significant inhibition effect”. Besides, the viability at 10 µM in series [1] worked out at 96.9%; in series [2] it was 86.4%; in series [3] it was 70.4%; in series [4], 119%; in [5], 66.3%; in [6], 69.1%. The viability at 10 µM is 91% in [7]; 89.2% in [8]; 79% in series [9]; 83.5% in [11]; 52.7% in series [10].
On to `CC1(C)S[C@@H]2[C@H](NC(=O)[C@H](N)c3ccccc3)C(=O)N2[C@H]1C(=O)O` [Ampicillin sodium], for which the “inhibition effect on different cancer cell lines” value with cancer cell lines is reported as “significant inhibition effect”. The viability at 10 µM in series [1] amounted to 76.1%; in series [2] it was 53.5%; in series [6], 105%; in series [7], 88.9%; in [8], 75.2%; in series [9] it was 72%. Besides, the viability at 10 µM in series [11] was 68.9%. Moreover, the “cell viability (survival rate), MKN-45” value in series [3] (human, 72 h, 10 µM) worked out at 77.9. For the same compound, in series [5] (human, 72 h, 10 µM), the “cell viability (survival rate), A549” value was determined as 102.6. The “cell viability (survival rate), PC3” value in series [12] is recorded as 98.1. Besides, the “cell viability (survival rate), MCF7” value in series [10] (human, 72 h, 10 µM) is given as 99.1.
As to `O=c1[nH]cnc2c1ncn2[C@H]1CC[C@@H](CO)O1` [Didanosine (Videx), Didanosine], the “inhibition effect on different cancer cell lines” value with cancer cell lines is given as “significant inhibition effect”. Moreover, the viability at 10 µM in [1] was determined as 119%; in [2] it was 64.2%; in series [3], 62%; in series [4], 126%; in [5], 67.5%; in series [6] it was 48.7%. Besides, the viability at 10 µM is 95.1% in series [7]; 80.3% in series [8]; 76.7% in series [9]; 77.2% in series [11]; 78.4% in series [10].
For the compound “Salbutamol sulfate [Salbutamol sulfate (Albuterol)]”, the “Inhibitory effect on cancer cell line” value in the series with cancer cell lines (WST-1, OD450 nm, Table 2: drugs which do not have significant inhibitory effect) is listed as 0. Further, the “inhibition effect on different cancer cell lines” value with cancer cell lines is recorded as “significant inhibition effect”. Also, the “cell viability (survival rate), H1650” value in series [2] is reported as 84.3. Further, the “cell viability (survival rate), MKN-45” value in series [3] (setting [13]) came out at 71.2. Also, the “cell viability (survival rate), HL-60” value in series [4] came to 104.1. Also, the “cell viability (survival rate), A549” value in series [5] (setting [13]) turned out to be 94.6. The “cell viability (survival rate), AGS” value in series [6] turned out to be 91.8. The “cell viability (survival rate), LoVo” value in [7] is 97.1. In addition, the “cell viability (survival rate), HeLa” value in series [8] came to 99.9. Besides, in series [11], the “cell viability (survival rate), A375” value was 98.0. In series [10] (setting [13]), the “cell viability (survival rate), MCF7” value came out at 139.6.
